Laboratory results taken from PMC12440207 (PLOS Pathogens, 2025).
“Also recorded” adds a separate entry of the source.

Key:
Ovo-SLO-1A [1] = molecular target: T1, Ovo-SLO-1A (Onchocerca volvulus, UniProt A0A2K6W0E9); test: Two-electrode voltage clamp of Xenopus oocytes expressing Ovo-SLO-1A; type: cell-based
Method: (§1) Defolliculated Xenopus laevis oocytes were purchased from Ecocyte Bioscience (Austin, TX, USA) and Xenopus 1 Corp (Dexter, MI, USA). Heterologous expression of the Bma-SLO-1F receptor was achieved by injecting 15 ng of cRNA in a total volume of 50 nL in nuclease-free water. Each oocyte was microinjected into the cytoplasm of the animal pole region using a Drummond Nanoject II microinjector (Drummond Scientific, Broomall, PA, USA). After injection, oocytes were incubated at 17°C in a sterile 96-well culture plate containing 300 μl of incubation solution (100 mM NaCl, 2 mM KCl, 1.8 mM CaCl2.2H2O, 1 mM MgCl2.6H2O, 5 mM HEPES, 2.5 mM Na pyruvate, 100 U/mL penicillin and 100 μg/mL streptomycin, pH 7.5) in each well. Incubation solution was changed daily during the period of incubation. The same procedure was also conducted for the Ovo-SLO-1A receptor. Experiments were performed on oocytes within 5 – 6 days post injection.
(§2) TEVC was conducted at room temperature by impaling oocytes with two microelectrodes; a current injecting electrode, Im, used to inject the required current for holding the membrane at a set voltage, and a voltage sensing electrode, Vm. The microelectrodes were pulled using a Flaming/Brown horizontal electrode puller (Model P-97; Sutter Instruments, Novato, CA, USA) and filled with 3 M KCl. Each electrode tip was broken with a piece of Kimwipe paper (Kimtech Science, Fisher) to achieve a resistance of 2 – 5 MΏ in recording solution (88 mM NaCl, 2.5 mM KCl, 1 mM MgCl2.6H2O, 1.8 mM CaCl2.2H2O and 5 mM HEPES, at pH 7.4). […] Amplified signals were converted from analog to digital format by a Digidata 1322A digitizer (Molecular Devices, CA, USA) and all data were acquired on a desktop computer with the Clampex 10.3 data acquisition software (Molecular Devices, Sunnyvale, CA, USA).
(§3) For our recordings, the times for drug applications were selected to allow the currents recorded to reach a stable plateau. At the beginning of experiments the Xenopus oocytes were perfused with drug free recording solution for 1 min, to obtain stable initial resting currents. […] Washing of the Xenopus oocytes then followed for 3 mins.
(§4) GraphPad Prism 10.1.1 software (GraphPad Software Inc., USA) was used to generate Concentration-response curves using the log agonist vs. response equation (variable slope) to estimate EC50, Rmax and Hillslope (nH) values for both Bma-SLO-1F and Ovo-SLO-1A channels. We also used the unpaired two-tailed Student’s t-test to test for statistical significance. A p value < 0.05 was deemed significant. The analyzed results were expressed as mean ± S.E.M.
(§5) The results were expressed as the mean ± S.E.M.
(§6) Results were expressed as the mean ± S.E.M.

Bma-SLO-1F [2] = molecular target: T2, Bma-SLO-1F (Brugia malayi, UniProt A0A0J9Y9H3); test: Two-electrode voltage clamp of Xenopus oocytes expressing Bma-SLO-1F; type: cell-based
T2 sequence (A0A0J9Y9H3 entry or part of it): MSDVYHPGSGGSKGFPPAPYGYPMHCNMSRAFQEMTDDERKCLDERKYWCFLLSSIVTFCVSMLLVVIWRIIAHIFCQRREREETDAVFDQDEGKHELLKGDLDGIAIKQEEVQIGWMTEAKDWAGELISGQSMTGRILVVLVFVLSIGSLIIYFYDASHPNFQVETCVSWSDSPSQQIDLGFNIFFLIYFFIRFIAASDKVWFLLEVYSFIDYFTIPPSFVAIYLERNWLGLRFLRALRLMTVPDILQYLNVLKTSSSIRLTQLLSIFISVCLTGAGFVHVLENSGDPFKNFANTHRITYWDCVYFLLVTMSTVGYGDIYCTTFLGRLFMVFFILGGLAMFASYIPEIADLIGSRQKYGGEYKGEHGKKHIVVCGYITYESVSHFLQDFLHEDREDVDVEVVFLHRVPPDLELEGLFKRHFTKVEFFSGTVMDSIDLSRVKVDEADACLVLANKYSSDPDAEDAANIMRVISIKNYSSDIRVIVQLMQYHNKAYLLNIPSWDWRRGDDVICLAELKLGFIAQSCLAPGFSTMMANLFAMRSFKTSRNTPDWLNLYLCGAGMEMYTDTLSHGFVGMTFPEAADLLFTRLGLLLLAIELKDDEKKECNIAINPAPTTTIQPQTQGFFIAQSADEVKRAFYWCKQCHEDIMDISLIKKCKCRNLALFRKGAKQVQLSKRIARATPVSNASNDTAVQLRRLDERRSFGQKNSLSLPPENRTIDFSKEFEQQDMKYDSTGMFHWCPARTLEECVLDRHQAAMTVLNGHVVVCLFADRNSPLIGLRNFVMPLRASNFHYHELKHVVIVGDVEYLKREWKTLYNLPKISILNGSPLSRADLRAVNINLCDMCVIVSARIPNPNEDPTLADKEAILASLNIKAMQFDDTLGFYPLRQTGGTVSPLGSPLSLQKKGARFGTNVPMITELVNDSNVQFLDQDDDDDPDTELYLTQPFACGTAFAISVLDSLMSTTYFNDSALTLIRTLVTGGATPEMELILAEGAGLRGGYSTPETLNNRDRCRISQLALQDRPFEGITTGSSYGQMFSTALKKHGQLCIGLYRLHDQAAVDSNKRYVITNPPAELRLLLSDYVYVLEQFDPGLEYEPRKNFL
Method: as §1, §2, §3, §4, §5, §6

Ovo-SLO-1A [3] = molecular target: T1, Ovo-SLO-1A; test: Voltage step electrophysiology (current-voltage relationship), Ovo-SLO-1A oocytes; type: cell-based; conditions: 1 µM emodepside
Method: (§7) Briefly, oocytes expressing either Bma-SLO-1F or Ovo-SLO-1A channels were impaled and subjected to a current-voltage protocol that consisted of 500 ms voltage steps from -120 to + 60 mV in 20 mV increments, starting from a holding position of -70 mV for 1 s between each step. Plateau currents were recorded at a frequency of 5000 Hz during clamping and perfused with recording solution: (88 mM NaCl, 2.5 mM, KCl, 1 mM MgCl2.6H2O, 1.8 mM CaCl2.2H2O and 5 mM HEPES, at pH 7.4). The results of the voltage steps were evaluated and analyzed using the ClampFit 10.3 software (Molecular Devices), whereas current-voltage curves (IVCs) were prepared using Graphpad Prism 10.1.1(GraphPad Software, Inc., USA).
(§8) To obtain current-voltage curves (IVCs) from our voltage steps experiments, plateau currents elicited at each step potential (-120 to + 60 mV) were acquired for individual oocytes in Clampfit 10.3 (Molecular Devices, Sunnyvale, CA, USA). Mean currents for all replicate oocytes were plotted against their corresponding voltage step potentials to obtain IVCs using Graphpad Prism 10.1.1 software (GraphPad Software, Inc., USA). […] Subsequently, statistical differences for slope values among treatment groups were analyzed using ANOVA, followed by the Tukey multiple comparison post-hoc test. Results were expressed as mean ± S.E.M.

Bma-SLO-1F [4] = molecular target: T2, Bma-SLO-1F; test: Voltage step electrophysiology (current-voltage relationship), Bma-SLO-1F oocytes; type: cell-based
Method: as §7, §8

[5] = test system: water injected oocytes (endogenous channels of Xenopus laevis); test: Electrophysiology of water injected oocytes (control); type: cell-based
Method: as §2, §7
as §8, with “USA).” for “USA). Mean currents for all replicate oocytes were plotted against their corresponding voltage step potentials to obtain IVCs using Graphpad Prism 10.1.1 software (GraphPad Software, Inc., USA).”

mammalian BK channel = test system: mammalian BK channel; set-up: method as in PMID 24561672; conditions: mammalian BK channel activator; cited from earlier work
[6] = 0.3 µM emodepside + 3 µM GoSlo-SR-5-69 co-applied, n = 6
[7] = absence of GoSlo-SR-5-69, modulation experiment, n = 6
[8] = emodepside alone, +20 mV, n = 10
[9] = emodepside concentration-response, n = 10
[10] = in the presence of 3 µM GoSlo-SR-5-69, n = 6
[11] = 3 µM GoSlo-SR-5-69 + 0.3 µM emodepside, Ca2+ replaced with equimolar Co2+
[12] = 3 µM GoSlo-SR-5-69 alone, +20 mV
[13] = 3 µM GoSlo-SR-5-69 on 0.3 µM emodepside response

T1 sequence (A0A2K6W0E9 entry or part of it): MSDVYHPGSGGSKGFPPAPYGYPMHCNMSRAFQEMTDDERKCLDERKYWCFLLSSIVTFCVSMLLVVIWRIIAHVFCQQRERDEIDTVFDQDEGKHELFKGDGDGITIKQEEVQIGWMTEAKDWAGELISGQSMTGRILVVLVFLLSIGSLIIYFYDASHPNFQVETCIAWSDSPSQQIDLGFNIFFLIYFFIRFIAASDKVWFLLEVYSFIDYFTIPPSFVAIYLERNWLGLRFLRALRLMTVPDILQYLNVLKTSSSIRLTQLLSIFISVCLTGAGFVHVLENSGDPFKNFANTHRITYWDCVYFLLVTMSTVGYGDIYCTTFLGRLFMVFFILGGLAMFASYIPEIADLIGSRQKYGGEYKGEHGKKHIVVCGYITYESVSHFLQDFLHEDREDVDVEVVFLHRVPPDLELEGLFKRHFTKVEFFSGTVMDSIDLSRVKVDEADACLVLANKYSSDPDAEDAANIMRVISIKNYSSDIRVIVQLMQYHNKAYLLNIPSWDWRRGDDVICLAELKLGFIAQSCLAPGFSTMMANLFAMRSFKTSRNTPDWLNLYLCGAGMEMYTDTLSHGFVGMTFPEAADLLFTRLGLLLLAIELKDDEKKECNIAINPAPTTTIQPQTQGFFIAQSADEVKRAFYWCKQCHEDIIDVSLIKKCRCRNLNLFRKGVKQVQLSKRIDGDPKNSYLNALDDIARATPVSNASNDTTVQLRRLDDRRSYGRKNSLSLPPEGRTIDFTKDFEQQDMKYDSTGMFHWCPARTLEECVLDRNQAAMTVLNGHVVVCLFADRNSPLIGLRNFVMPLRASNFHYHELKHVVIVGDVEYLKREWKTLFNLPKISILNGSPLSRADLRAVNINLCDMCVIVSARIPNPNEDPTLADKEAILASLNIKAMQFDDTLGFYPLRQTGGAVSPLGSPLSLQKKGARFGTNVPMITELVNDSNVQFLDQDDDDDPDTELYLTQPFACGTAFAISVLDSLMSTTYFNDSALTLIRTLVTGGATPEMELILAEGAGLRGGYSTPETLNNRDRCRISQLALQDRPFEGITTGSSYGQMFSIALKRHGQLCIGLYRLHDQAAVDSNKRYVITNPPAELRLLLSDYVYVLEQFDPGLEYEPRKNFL

emodepside
current response (Ovo-SLO-1A [1]; [6]): 6735 ± 272 nA | current response (Ovo-SLO-1A [1]; 0.3 µM emodepside alone, n = 6): 4170 ± 355 nA | sensitivity of Ovo-SLO-1A to emodepside relative to Bma-SLO-1F (EC50 ratio) (Ovo-SLO-1A [1]; Ovo-SLO-1A vs Bma-SLO-1F): 3.5 times | Rmax of emodepside (Ovo-SLO-1A [1]; [7]): 2454 ± 87 nA | maximum response (Rmax) (Ovo-SLO-1A [1]; [8]): 10762 ± 478 nA | Hillslope (Ovo-SLO-1A [1]; [9]): 1.2 ± 0.1 | Rmax of emodepside (Ovo-SLO-1A [1]; [10]): 4928 ± 830 nA | current (Imax) response (Bma-SLO-1F [2]; [6]): 2799 ± 100 nA | current (Imax) response (Bma-SLO-1F [2]; 0.3 µM emodepside alone, n = 6): 954 ± 355 nA | Rmax of emodepside (Bma-SLO-1F [2]; [7]): 2679 ± 318 nA | maximum response (Rmax) (Bma-SLO-1F [2]; [8]): 6446 ± 287 nA | Hillslope (Bma-SLO-1F [2]; [9]): 1.1 ± 0.1 | Rmax of emodepside (Bma-SLO-1F [2]; [10]): 4493 ± 433 nA | reversal potential (Ovo-SLO-1A [3]; no change from basal): -71 mV | slope conductance (Ovo-SLO-1A [3]; voltage steps -120 to +60 mV, n = 6 (basal 26 ± 2.9 µS)): 61 ± 4.4 µS | slope conductance (Bma-SLO-1F [4]; 1 µM emodepside, voltage steps -120 to +60 mV, n = 6 (basal 2.4 ± 0.3 µS)): 12 ± 1.0 µS | reversal potential (Bma-SLO-1F [4]; all current voltage plots, with and without 1 µM emodepside): ~-72 mV | response of water injected oocytes ([5]; 0.3 µM emodepside, +20 mV): no response | effect on current and conductance of water injected oocytes ([5]; 1 µM emodepside, voltage steps): little or no agonist effects; also recorded: no detectable change

Nc1c(S(=O)(=O)O)cc(Nc2ccc3c(c2)CCCC3)c2c1C(=O)c1ccccc1C2=O [GoSlo-SR-5–69]
change in emodepside Rmax (Ovo-SLO-1A [1]; 3 µM GoSlo-SR-5-69): significantly increased | shift in emodepside EC50 (Ovo-SLO-1A [1]; 3 µM GoSlo-SR-5-69): did not cause a significant shift; also recorded: remained unchanged | potentiation of emodepside responses in the absence of extracellular Ca2+ (Ovo-SLO-1A [1]; [11]): still potentiated | agonist activity (channel activation) alone (Ovo-SLO-1A [1]; [12]): lacks agonist activity; also recorded: does not by itself activate | percentage increase in peak currents of the emodepside response (Ovo-SLO-1A [1]; [13]): 65.2% | increase in emodepside Rmax (Bma-SLO-1F [2]; 3 µM GoSlo-SR-5-69): 1.7 fold | increase in sensitivity to emodepside (EC50 shift) (Bma-SLO-1F [2]; 3 µM GoSlo-SR-5-69): 7 fold | potentiation of emodepside responses in the absence of extracellular Ca2+ (Bma-SLO-1F [2]; [11]): still potentiated | agonist activity (channel activation) alone (Bma-SLO-1F [2]; [12]): lacks agonist activity; also recorded: does not by itself activate | percentage increase in peak currents of the emodepside response (Bma-SLO-1F [2]; [13]): 200% | current produced in water injected oocytes ([5]; 3 µM GoSlo-SR-5-69, +20 mV, also seen in SLO-1 expressing oocytes): slowly inactivating inward current | EC50 (mammalian BK channel): 0.251 µM
